Series [1] concerns WI-38 IR-induced senescent cells (IR-SCs). Nature of the series: Cell viability assay (flow cytometry, PI). Format: cell-based, human. Particulars: for EC50: Homo sapiens, WI-38 IR-SCs, 72 h, Table 1 screen of curcumin analogs; for selective toxicity against IR-SCs versus NCs (viability): WI-38, 72 h. As to the method: (§1) Human WI-38 fibroblasts (WI-38, Cat. No. CCL-75), human IMR-90 fibroblasts (IMR-90, Cat. No. CCL-186), human umbilical vein endothelial cells (HUVEC, Cat. No. CRL-1730), human renal epithelial cells (HREC, Cat. No. PCS-400-012) and human pre-adipocytes (Cat. No. PCS-210-010) were newly purchased from the American Type Culture Collection (ATCC, Manassas, VA, USA). WI-38 and IMR-90 cells were cultured in complete Dulbecco’s modified Eagle medium (DMEM, Cat. No. 12430054, Thermo Fisher Scientific, Waltham, MA, USA) supplemented with 10% heat-inactivated fetal bovine serum (FBS, Cat. No. S11150H, Atlanta Biologicals, Flowery Branch, GA, USA), 100 U/mL penicillin and 100 µg/mL streptomycin (Pen Strep, Cat. No. 15140122, Thermo Fisher Scientific, Waltham, MA, USA) in a humidified incubator at 37°C and 5% CO2. HUVEC were cultured in EGM-2 BulletKit (Cat. No. CC-3162, Lonza, Basel, Switzerland) containing basal medium supplemented with growth factors, cytokines and other supplements according to the manufacturer’s protocol. HREC were cultured in renal epithelial cell basal medium (Cat. No. PCS-400-030, ATCC, Manassas, VA, USA) supplemented with renal epithelial cell growth kit (Cat. No. PCS400040, ATCC, Manassas, VA, USA). Human pre-adipocytes were cultured in fibroblast basal medium (Cat. No. PCS-201-030, ATCC, Manassas, VA, USA) supplemented with fibroblast growth kit-low serum (Cat. No. PCS201041, ATCC, Manassas, VA, USA). EF24 (Cat. No. E8409) and HO-3867 (Cat. No. S7501) were purchased from Sigma-Aldrich (St. Louis, MO, USA) and Selleckchem (Houston, TX, USA), respectively. DIMC (Cat. No. 10009986) and 2-HBA (Cat. No. 11879) were both purchased from Cayman Chemical (Ann Arbor, MI, USA).
(§2) Three different methods were used for the induction of SCs, including replicative exhaustion, ionizing radiation and ectopic Ras expression as previously described. Briefly, low-passage WI-38 cells (< 25 passages), IMR-90 cells (< 25 passages), HUVEC (< 10 passages), HREC (< 10 passages) and pre-adipocytes (< 4 passages) were used as NCs or for the induction of senescence. To induce replicative senescence (Rep-SCs), WI-38 and IMR-90 fibroblasts, HUVEC, HREC and pre-adipocytes were subcultured until they stopped to divide and became permanently growth arrested senescence after 38 passages (WI-38), 38 passages (IMR-90), 22 passages (HUVEC), 30 passages (HREC) and 10 passages (pre-adipocytes), respectively. To induce SCs by ionizing radiation (IR-SCs) and ectopic expression of Ras (Ras-SCs), WI-38 NCs were treated as previously described.
(§3) Number of viable cells were quantified using flow cytometry as previously described with slight modifications. Specifically, NCs and SCs were incubated with vehicle (0.1% DMSO) or a test compound at indicated concentrations for 72 h. Following dissociation with 0.25% Trypsin-EDTA (Cat. No. 25200056, Thermo Fisher Scientific, Waltham, MA, USA) at 37°C for 5 min, the cells were harvested in 100 µl pre-cooled phosphate buffered saline (PBS, Cat. No. 20012027, Thermo Fisher Scientific, Waltham, MA, USA) containing 2% FBS and 100 ng/mL propidium iodide (PI, P4170, Sigma-Aldrich, St. Louis, MO, USA) and analyzed using flow cytometry (LSR II, BD Biosciences, San Jose, CA, USA). Percentage of viable cells were determined by counting the number of PI negative cells (viable cells) and then calculated as a ratio of control cells treated with vehicle. In addition, dose-response curves were generated for each compound, and the concentration for 50% of maximal effect (EC50 values) was calculated using GraphPad Prism 6.

Series [2] concerns WI-38 non-senescent cells (NCs). The series is described as follows: Cell viability assay (flow cytometry, PI). Format: cell-based, human. Particulars: Homo sapiens; WI-38 NCs, 72 h, Table 1 screen of curcumin analogs. The procedure:
as §1, §2, §3

Details of series [3]: method as in PMID 20211249. The note with it: cited from earlier work.
Series [4] concerns WI-38 IR-SCs. Nature of the series: Combination treatment cell viability and coefficient of drug interaction (CDI). Format: cell-based, human. The note with it: 72 h. The procedure: as §3
The data were analyzed by analysis of variance (ANOVA) with GraphPad Prism 6 (GraphPad Software, La Jolla, CA, USA). […] To detect the synergistic senolytic activities of EF24 and ABT263, CDI was calculated as previously described.

A further series concerns platelets. Further details: method as in PMID 22496272. Particulars: cited from earlier work.
Series [5] relates to Bcl-2 family proteins (Bcl-xl, Mcl-1, Bcl-2). Nature of the series: Proteasome inhibition experiment (MG132 pretreatment, western blots). Format: cell-based, human. Particulars: 1 µM MG132 1 h prior to EF24 for 72 h. The procedure: After treatment with vehicle or EF24 at 0.5, 1 and 2 µM for 72 h, WI-38 NCs or IR-SCs were harvested in 1.5mL microcentrifuge tubes, and lysed in RIPA buffer with EDTA and EGTA (Cat. No. BP-115DG, Boston BioProducts, Ashland, MA, USA) supplemented with 1% protease inhibitor cocktail (Cat. No. P8340, Sigma-Aldrich, St. Louis, MO, USA) and 1% phosphatase inhibitor cocktail (Cat. No. P0044, Sigma-Aldrich, St. Louis, MO, USA). An equal amount of protein (30 µg/lane) from each cell extract was resolved on a precast gel (Mini-PROTEAN TGX™, Cat. No. 456-1094, Bio-Rad, Hercules, CA, USA). Proteins were blotted to a precut 0.2 µm PVDF membrane (Invitrolon™, Cat. No. LC2002, Life Technologies, Carlsbad, CA, USA) by electrophoresis. The membranes were blocked with 1X TBS-Tween (TBST, Cat. No. J77500, Affymetrix, Santan Clara, CA, USA) containing 5% non-fat dry milk (Cat. No. sc-2324, Santa Cruz Biotechnology, Dallas, TX, USA), and subsequently probed with primary antibodies at a predetermined optimal concentration overnight at 4°C. The primary antibodies including Bcl-xl (Cat. No. 2762), Mcl-1 (Cat. No. 5453), and Bcl-2 (Cat. No. 2872) and β-actin (Cat. No. 4970) were purchased from Cell Signaling Technology (Danvers, MA, USA). […] The blotting membranes were recorded using autoradiography (SRX-101, Konica, Shinjuku, Tokyo, Japan). […]
(In western blotting, separated proteins are transferred to a membrane and probed.)

Series [6] concerns WI-38 IR-SCs. The series is described as follows: Apoptosis analysis (Annexin-V/PI flow cytometry). The series is classed as cell-based, human. The note with it: 10 µM QVD 4 h prior to 2 µM EF24 for 72 h. As to the method: WI-38 NCs and SCs were treated with vehicle or 10 µM Q-VD-OPh (QVD, Cat. No. S7311, Selleckchem, Houston, TX, USA) for 4 h prior to the addition of vehicle or 2 µM EF24 for 72 h. The suspending cells were first harvested from the culture and then pooled with the adherent cells detached by 0.25% Trypsin-EDTA at 37°C for 5 min in 12 × 75 mm polystyrene round-bottom tubes (Cat. No. 352058, Falcon, Corning, NY, USA) containing complete DMEM medium. The cells were stained with Alexa Fluor 647-Annexin V (1: 50, Cat. No. 640912, BioLegend, San Diego, CA, USA) and PI (10 µg/mL, Cat. No. 421301, BioLegend, San Diego, CA, USA) at room temperature for 30 min. The stained cells were analyzed using a BD LSR II flow cytometer.
Background: In flow cytometry, cells or beads pass a laser one at a time.

The subject of series [7] is senescent human preadipocytes. Set-up: method as in PMID 28273655. The note with it: cited from earlier work.

Residues, ends and D or L forms follow the SMILES beside them. *: point of attachment. Cbz = O=C(OCc1ccccc1)*

A word on the EC50: it is the concentration that produces a half-maximal response. A higher EC50 goes with a less potent agent. On to `O=C(C=Cc1ccccc1O)C=Cc1ccccc1O` [2-HBA, Bis(2-hydroxybenzylidene)acetone], for which, in series [1], the EC50 stood at 3.85 µM and the “selective toxicity against IR-SCs versus NCs (viability)” value (“selective toxicity” for short) is given as “lesser toxicities to NCs”. The same molecule yielded an EC50 in series [2] of 9.5 µM.
Turning to `C=CCNC1=C2C[C@@H](C)C[C@H](OC)[C@H](O)[C@@H](C)/C=C(\C)[C@H](OC(N)=O)[C@@H](OC)/C=C\C=C(/C)C(=O)NC(=CC1=O)C2=O` [17-AAG], the hepatotoxicity entry in series [3] is recorded as “unacceptable hepatotoxicity”.
Consider `CC1(C)CCC(c2ccc(Cl)cc2)=C(CN2CCN(c3ccc(C(=O)NS(=O)(=O)c4ccc(N[C@H](CCN5CCOCC5)CSc5ccccc5)c(S(=O)(=O)C(F)(F)F)c4)cc3)CC2)C1` [ABT263], for which the “cell viability of IR-SCs, agent alone” value in the series with WI-38 IR-SCs [4] is recorded as “dose-dependently reduce”. In addition, in the series with platelets, the “on-target toxicity to platelets” value is listed as “dose-limiting thrombocytopenia”.
Turning to `COc1ccc(/C=C/C(=O)CC(=O)/C=C/c2ccc(OC)c(OC)c2)cc1OC` [DIMC, dimethoxycurcumin], the EC50 in series [1] was 15.2 µM; in series [2], 23.8 µM. Besides, the “selective toxicity” value in series [1] is on record as “minimal selective toxicity”.
For the molecule `CC1(C)C=C(CN2C/C(=C\c3ccc(F)cc3)C(=O)/C(=C/c3ccc(F)cc3)C2)C(C)(C)N1O` [HO-3867], in series [1], a half-maximal effect (EC50) was put at 3.85 µM and the “selective toxicity” value is reported as “lesser toxicities to NCs”. The EC50 in series [2] was 8.3 µM.
As to `CC(C)C[C@@H](C=O)NC(=O)[C@H](CC(C)C)NC(=O)[C@H](CC(C)C)NC(=O)OCc1ccccc1` [MG132] (Cbz-Leu-Leu-Leu-aldehyde), the “effect of MG132 pretreatment on downregulation of Bcl-2 family proteins by EF24 in SCs” value in series [5] (WI-38 IR-SCs) is “abrogated”. Also, the “effect of MG132 pretreatment on expression of Bcl-2 family proteins in NCs” value in series [5] (WI-38 NCs) is “no significant effect”.
Regarding `CC(C)[C@H](NC(=O)c1ccc2ccccc2n1)C(=O)N[C@@H](CC(=O)O)C(=O)COc1c(F)cccc1F` [QVD], the “effect of QVD pretreatment on EF24 induction of SCs apoptosis” value in the series on WI-38 IR-SCs [6] is “completely blocked”.
On to `O=c1c(O)c(-c2ccc(O)c(O)c2)oc2cc(O)ccc12` [fisetin], for which, in series [7], the “senolytic activity against senescent human preadipocytes” value is reported as “lacks senolytic activity”.
On to `COC1=C2C[C@@H](C)C[C@H](OC)[C@H](O)[C@@H](C)/C=C(\C)[C@H](OC(N)=O)[C@@H](OC)/C=C\C=C(/C)C(=O)NC(=CC1=O)C2=O` [geldanamycin], for which the hepatotoxicity entry in series [3] is on record as “unacceptable hepatotoxicity”.

Source of the values: publication PMC6366974, “The curcumin analog EF24 is a novel senolytic agent” (Aging (Albany NY), 2019).
